What was measured:
[1] = test system: novel coronavirus (live coronavirus), vero cells; test: In-vitro live virus neutralization experiment with serum of immunized mice (CPE method); type: in vivo, SARS-CoV-2; details: Embodiment I: single peptide 100 μg + MF59 at Day 0, 14, 28, Balb/c mice, serum Day 35
Balb/c mice = test: Polypeptide chip-based vaccine immunogenicity scoring system; type: in vivo; design: key to A2: whether the 95 percentile of the last sampling is increased compared with the end point: Y = rise; N = no rise; details: for A1: difference between a highest median and a D 0 median (95 percentile) / A2: whether the 95 percentile of the last sampling is increased compared with the end point: Mix1-10; for A: 95 percentile grouping number score / B: Mouse performance score: total score = 5; for C1: #A timing-sequence response peptide fragment set / C2: #B vaccine specificity peptide fragment set / C3: Intersection of A and B / C4: Percentage of the intersection in set B / C: Timing-sequence response and specificity score: value of the whole mix
[2] = Embodiment III, polypeptide-KLH
[3] = Embodiment III, polypeptide-KLH, A*3 + B*2 + C*1
[4] = adjuvant AddaVax, 7 peptides co-immunized in mice
[5] = adjuvant Adju-Phos, 7 peptides co-immunized in mice
[6] = adjuvant Alhydrogel, 7 peptides co-immunized in mice
[7] = adjuvant Imjet Alumn, 7 peptides co-immunized in mice
[8] = adjuvant MA103A, 7 peptides co-immunized in mice
[9] = adjuvant MA103B, 7 peptides co-immunized in mice

KLDDKDPNFK (SARS-CoV-2) [SEQ ID NO:20]
Neutralizing antibody positive rate (%) [1]: 20%
B1: D 0-D 14 95 percentile rise in the number of mice (Balb/c mice; [2]): 3
B2: D 0-D 21 95 percentile rise in the number of mice (Balb/c mice; [2]): 3
B3: D 14-D 21 95 percentile rise in the number of mice (Balb/c mice; [2]): 1
B4: D 21-D 28 95 percentile rise in the number of mice (Balb/c mice; [2]): 1
A1: difference between a highest median and a D 0 median (95 percentile) (Balb/c mice; [2]): 0.08
A2: whether the 95 percentile of the last sampling is increased compared with the end point (Balb/c mice; [2]): Y
Total single peptide (Balb/c mice; [3]): 14.8
A: 95 percentile grouping number score (Balb/c mice; [2]): 3.5
B: Mouse performance score (Balb/c mice; [2]): 1.9
C1: #A timing-sequence response peptide fragment set (Balb/c mice; [2]): 511
C2: #B vaccine specificity peptide fragment set (Balb/c mice; [2]): 364
C3: Intersection of A and B (Balb/c mice; [2]): 1
C4: Percentage of the intersection in set B (Balb/c mice; [2]): 0.275
C: Timing-sequence response and specificity score (Balb/c mice; [2]): 0.5
1) 95 percentile grouping number A (Balb/c mice; [4]): 0
1) 95 percentile grouping number A1 (Balb/c mice; [4]): 0
2) Mouse performance B (Balb/c mice; [4]): 1.5
2) Mouse performance B1 (Balb/c mice; [4]): 1
2) Mouse performance B2 (Balb/c mice; [4]): 0
2) Mouse performance B3 (Balb/c mice; [4]): 3
3) Timing-sequence response and specificity C (Balb/c mice; [4]): 0
3) Timing-sequence response and specificity C1 (Balb/c mice; [4]): 237
3) Timing-sequence response and specificity C2 (Balb/c mice; [4]): 1244
3) Timing-sequence response and specificity C3 (Balb/c mice; [4]): 0
3) Timing-sequence response and specificity C4 (Balb/c mice; [4]): 0.000
Total single peptide (Balb/c mice; [4]): 3
1) 95 percentile grouping number A (Balb/c mice; [5]): 1.5
1) 95 percentile grouping number A1 (Balb/c mice; [5]): 0.025
2) Mouse performance B (Balb/c mice; [5]): 1.4
2) Mouse performance B1 (Balb/c mice; [5]): 2
2) Mouse performance B2 (Balb/c mice; [5]): 2
2) Mouse performance B3 (Balb/c mice; [5]): 1
3) Timing-sequence response and specificity C (Balb/c mice; [5]): 0
3) Timing-sequence response and specificity C1 (Balb/c mice; [5]): 203
3) Timing-sequence response and specificity C2 (Balb/c mice; [5]): 1244
3) Timing-sequence response and specificity C3 (Balb/c mice; [5]): 0
3) Timing-sequence response and specificity C4 (Balb/c mice; [5]): 0.000
Total single peptide (Balb/c mice; [5]): 7.3
1) 95 percentile grouping number A (Balb/c mice; [6]): 0
1) 95 percentile grouping number A1 (Balb/c mice; [6]): 0
2) Mouse performance B (Balb/c mice; [6]): 1.6
2) Mouse performance B1 (Balb/c mice; [6]): 2
2) Mouse performance B2 (Balb/c mice; [6]): 1
2) Mouse performance B3 (Balb/c mice; [6]): 2
3) Timing-sequence response and specificity C (Balb/c mice; [6]): 1
3) Timing-sequence response and specificity C1 (Balb/c mice; [6]): 123
3) Timing-sequence response and specificity C2 (Balb/c mice; [6]): 1244
3) Timing-sequence response and specificity C3 (Balb/c mice; [6]): 2
3) Timing-sequence response and specificity C4 (Balb/c mice; [6]): 0.161
Total single peptide (Balb/c mice; [6]): 3.7
1) 95 percentile grouping number A (Balb/c mice; [7]): 0
1) 95 percentile grouping number A1 (Balb/c mice; [7]): 0
2) Mouse performance B (Balb/c mice; [7]): 1.7
2) Mouse performance B1 (Balb/c mice; [7]): 1
2) Mouse performance B2 (Balb/c mice; [7]): 1
2) Mouse performance B3 (Balb/c mice; [7]): 3
3) Timing-sequence response and specificity C (Balb/c mice; [7]): 1
3) Timing-sequence response and specificity C1 (Balb/c mice; [7]): 100
3) Timing-sequence response and specificity C2 (Balb/c mice; [7]): 1244
3) Timing-sequence response and specificity C3 (Balb/c mice; [7]): 3
3) Timing-sequence response and specificity C4 (Balb/c mice; [7]): 0.241
Total single peptide (Balb/c mice; [7]): 3.9
1) 95 percentile grouping number A (Balb/c mice; [8]): 1.5
1) 95 percentile grouping number A1 (Balb/c mice; [8]): 0.015
2) Mouse performance B (Balb/c mice; [8]): 2.4
2) Mouse performance B1 (Balb/c mice; [8]): 2
2) Mouse performance B2 (Balb/c mice; [8]): 3
2) Mouse performance B3 (Balb/c mice; [8]): 3
3) Timing-sequence response and specificity C (Balb/c mice; [8]): 1
3) Timing-sequence response and specificity C1 (Balb/c mice; [8]): 260
3) Timing-sequence response and specificity C2 (Balb/c mice; [8]): 1244
3) Timing-sequence response and specificity C3 (Balb/c mice; [8]): 3
3) Timing-sequence response and specificity C4 (Balb/c mice; [8]): 0.241
Total single peptide (Balb/c mice; [8]): 9.8
1) 95 percentile grouping number A (Balb/c mice; [9]): 1
1) 95 percentile grouping number A1 (Balb/c mice; [9]): 0.02
2) Mouse performance B (Balb/c mice; [9]): 2.1
2) Mouse performance B1 (Balb/c mice; [9]): 3
2) Mouse performance B2 (Balb/c mice; [9]): 2
2) Mouse performance B3 (Balb/c mice; [9]): 2
3) Timing-sequence response and specificity C (Balb/c mice; [9]): 0
3) Timing-sequence response and specificity C1 (Balb/c mice; [9]): 153
3) Timing-sequence response and specificity C2 (Balb/c mice; [9]): 1244
3) Timing-sequence response and specificity C3 (Balb/c mice; [9]): 0
3) Timing-sequence response and specificity C4 (Balb/c mice; [9]): 0.000
Total single peptide (Balb/c mice; [9]): 7.2

YGANKDGI (SARS-CoV-2) [SEQ ID NO:21]
Neutralizing antibody positive rate (%) [1]: 40%
B1: D 0-D 14 95 percentile rise in the number of mice (Balb/c mice; [2]): 3
B2: D 0-D 21 95 percentile rise in the number of mice (Balb/c mice; [2]): 3
B3: D 14-D 21 95 percentile rise in the number of mice (Balb/c mice; [2]): 1
B4: D 21-D 28 95 percentile rise in the number of mice (Balb/c mice; [2]): 1
A1: difference between a highest median and a D 0 median (95 percentile) (Balb/c mice; [2]): 0.08
A2: whether the 95 percentile of the last sampling is increased compared with the end point (Balb/c mice; [2]): Y
Total single peptide (Balb/c mice; [3]): 14.8
A: 95 percentile grouping number score (Balb/c mice; [2]): 3.5
B: Mouse performance score (Balb/c mice; [2]): 1.9
C1: #A timing-sequence response peptide fragment set (Balb/c mice; [2]): 230
C2: #B vaccine specificity peptide fragment set (Balb/c mice; [2]): 251
C3: Intersection of A and B (Balb/c mice; [2]): 1
C4: Percentage of the intersection in set B (Balb/c mice; [2]): 0.398
C: Timing-sequence response and specificity score (Balb/c mice; [2]): 0.5
1) 95 percentile grouping number A (Balb/c mice; [4]): 3.5
1) 95 percentile grouping number A1 (Balb/c mice; [4]): 0.055
2) Mouse performance B (Balb/c mice; [4]): 2.6
2) Mouse performance B1 (Balb/c mice; [4]): 0
2) Mouse performance B2 (Balb/c mice; [4]): 3
2) Mouse performance B3 (Balb/c mice; [4]): 5
3) Timing-sequence response and specificity C (Balb/c mice; [4]): 0
3) Timing-sequence response and specificity C1 (Balb/c mice; [4]): 237
3) Timing-sequence response and specificity C2 (Balb/c mice; [4]): 1244
3) Timing-sequence response and specificity C3 (Balb/c mice; [4]): 0
3) Timing-sequence response and specificity C4 (Balb/c mice; [4]): 0.000
Total single peptide (Balb/c mice; [4]): 15.7
1) 95 percentile grouping number A (Balb/c mice; [5]): 4
1) 95 percentile grouping number A1 (Balb/c mice; [5]): 0.05
2) Mouse performance B (Balb/c mice; [5]): 2.9
2) Mouse performance B1 (Balb/c mice; [5]): 3
2) Mouse performance B2 (Balb/c mice; [5]): 4
2) Mouse performance B3 (Balb/c mice; [5]): 3
3) Timing-sequence response and specificity C (Balb/c mice; [5]): 0
3) Timing-sequence response and specificity C1 (Balb/c mice; [5]): 203
3) Timing-sequence response and specificity C2 (Balb/c mice; [5]): 1244
3) Timing-sequence response and specificity C3 (Balb/c mice; [5]): 0
3) Timing-sequence response and specificity C4 (Balb/c mice; [5]): 0.000
Total single peptide (Balb/c mice; [5]): 17.8
1) 95 percentile grouping number A (Balb/c mice; [6]): 1.5
1) 95 percentile grouping number A1 (Balb/c mice; [6]): 0.025
2) Mouse performance B (Balb/c mice; [6]): 2.4
2) Mouse performance B1 (Balb/c mice; [6]): 4
2) Mouse performance B2 (Balb/c mice; [6]): 2
2) Mouse performance B3 (Balb/c mice; [6]): 2
3) Timing-sequence response and specificity C (Balb/c mice; [6]): 1
3) Timing-sequence response and specificity C1 (Balb/c mice; [6]): 123
3) Timing-sequence response and specificity C2 (Balb/c mice; [6]): 1244
3) Timing-sequence response and specificity C3 (Balb/c mice; [6]): 2
3) Timing-sequence response and specificity C4 (Balb/c mice; [6]): 0.161
Total single peptide (Balb/c mice; [6]): 9.8
1) 95 percentile grouping number A (Balb/c mice; [7]): 2
1) 95 percentile grouping number A1 (Balb/c mice; [7]): 0.025
2) Mouse performance B (Balb/c mice; [7]): 2.4
2) Mouse performance B1 (Balb/c mice; [7]): 0
2) Mouse performance B2 (Balb/c mice; [7]): 4
2) Mouse performance B3 (Balb/c mice; [7]): 4
3) Timing-sequence response and specificity C (Balb/c mice; [7]): 1
3) Timing-sequence response and specificity C1 (Balb/c mice; [7]): 100
3) Timing-sequence response and specificity C2 (Balb/c mice; [7]): 1244
3) Timing-sequence response and specificity C3 (Balb/c mice; [7]): 3
3) Timing-sequence response and specificity C4 (Balb/c mice; [7]): 0.241
Total single peptide (Balb/c mice; [7]): 11.3
1) 95 percentile grouping number A (Balb/c mice; [8]): 3
1) 95 percentile grouping number A1 (Balb/c mice; [8]): 0.042
2) Mouse performance B (Balb/c mice; [8]): 2.6
2) Mouse performance B1 (Balb/c mice; [8]): 4
2) Mouse performance B2 (Balb/c mice; [8]): 3
2) Mouse performance B3 (Balb/c mice; [8]): 2
3) Timing-sequence response and specificity C (Balb/c mice; [8]): 1
3) Timing-sequence response and specificity C1 (Balb/c mice; [8]): 260
3) Timing-sequence response and specificity C2 (Balb/c mice; [8]): 1244
3) Timing-sequence response and specificity C3 (Balb/c mice; [8]): 3
3) Timing-sequence response and specificity C4 (Balb/c mice; [8]): 0.241
Total single peptide (Balb/c mice; [8]): 14.7
1) 95 percentile grouping number A (Balb/c mice; [9]): 2.5
1) 95 percentile grouping number A1 (Balb/c mice; [9]): 0.035
2) Mouse performance B (Balb/c mice; [9]): 2
2) Mouse performance B1 (Balb/c mice; [9]): 4
2) Mouse performance B2 (Balb/c mice; [9]): 2
2) Mouse performance B3 (Balb/c mice; [9]): 1
3) Timing-sequence response and specificity C (Balb/c mice; [9]): 0
3) Timing-sequence response and specificity C1 (Balb/c mice; [9]): 153
3) Timing-sequence response and specificity C2 (Balb/c mice; [9]): 1244
3) Timing-sequence response and specificity C3 (Balb/c mice; [9]): 0
3) Timing-sequence response and specificity C4 (Balb/c mice; [9]): 0.000
Total single peptide (Balb/c mice; [9]): 11.5

Source: patent US20230136600A1, “Method and device for screening antigen epitope polypeptide” (priority 2020, published 2023)
